In patent US11214803B2, “Modulators of YAP1 expression” (Ionis Pharmaceuticals, Inc., priority 2019, dated 2022):
Strand notation (5' to 3'): a small letter for the sugar, then the base; units joined by * are phosphorothioate-linked, units joined directly phosphodiester-linked; [ ] holds rarer units or linkages, { } end groups; capitals alone tell only the bases. e = 2'-O-(2-methoxyethyl) (MOE); k = constrained ethyl (cEt); [5mC] = 5-methylcytosine; d = 2'-deoxy (DNA); m = 2'-O-methyl

Test system: Yap1 mRNA
Experiment: Antisense inhibition of human Yap1 in SNU-449 cells by modified oligonucleotides, single dose (Example 5, RTS36584)
Assay type: cell-based
Details: for YAP1 (% UTC): SNU-449 cells, 10,000 cells per well, RTS36584
Procedure: Modified oligonucleotides with additional chemistry modifications were designed to target a Yap1 nucleic acid and were tested for their effect on Yap1 mRNA level in SNU-449 cells. The modified oligonucleotides were tested in a series of experiments that had similar culture conditions. Cultured SNU-449 cells at a density of 10,000 cells per well were treated using free uptake with 2,000 nM of modified oligonucleotide. After a treatment period of approximately 48 hours, RNA was isolated from the cells and Yap1 mRNA levels were measured by quantitative real-time RTPCR. Human primer probe set RTS36584 was used to measure mRNA levels. Yap1 mRNA levels were normalized to total RNA content, as measured by RIBOGREEN®. Results are presented in the tables below as percent control of the amount of Yap1 mRNA relative to untreated control cells (% UTC). The modified oligonucleotides with percent control values marked with an asterisk (*) target the amplicon region of the primer probe set. Additional assays may be used to measure the potency and efficacy of the modified oligonucleotides targeting the amplicon region.
Several different chemistry modifications were tested, which are specified in the Chemistry Notation column of the tables below, wherein the notation “d” refers to a 2′-deoxyribose sugar, the notation “s” refers to a phosphorothioate (P═S) internucleoside linkage, the notation “k” refers to a cEt modified sugar, the notation “y” refers to a 2′-O-methyl ribose sugar, the notation “e” refers to a MOE modified sugar, and the notation “^mC” refers to a 5-methylcytosine.
“Start site” indicates the 5′-most nucleoside to which the gapmer is targeted in the human gene sequence. “Stop site” indicates the 3′-most nucleoside to which the gapmer is targeted human gene sequence. […] Activity of the modified oligonucleotide may be defined in a different experiment.

[1] = Yap1 mRNA, percent of untreated control, modified oligonucleotides targeting SEQ ID NO: 1 and 2, Table 47
[2] = Table 48, Yap1 mRNA level relative to untreated control, modified oligonucleotides targeting SEQ ID NO.: 1 and 2
[3] = Table 49, Yap1 mRNA level relative to untreated control, modified oligonucleotides targeting SEQ ID NO.: 1 and 2
[4] = Table 42 (separate experiment), free uptake, 2,000 nM modified oligonucleotide, approximately 48 hours, normalized to RIBOGREEN, Yap1 mRNA relative to untreated control cells
[5] = Table 41, free uptake, 2,000 nM modified oligonucleotide, approximately 48 hours, normalized to RIBOGREEN, Yap1 mRNA relative to untreated control cells
[6] = Table 50, Yap1 mRNA remaining as percent of untreated control (UT), SNU-449 cells, single dose
[7] = Table 39, free uptake, 2,000 nM oligonucleotide, approx. 48 hours, normalized to RIBOGREEN, Yap1 mRNA relative to untreated control
[8] = Table 51, Yap1 mRNA remaining as percent of untreated control (UT), SNU-449 cells, single dose
[9] = Table 52, Yap1 mRNA, modified oligonucleotides targeting SEQ ID NO: 1 and 2
[10] = Table 43 experiment, free uptake, 2,000 nM, approximately 48 hours, Yap1 mRNA normalized to RIBOGREEN, relative to untreated control cells
[11] = Table 40 (separate experiment), free uptake, 2,000 nM oligonucleotide, approx. 48 hours, normalized to RIBOGREEN, Yap1 mRNA relative to untreated control

Substance: 1009326 (kT*kA*kT*dT*dA*dG*dA*dG*dT*dA*dT*dG*dT*kG*kG*k[5mC]; antisense) [Compound 1009326]
- YAP1 (% UT) [1]: 10 % UT

Substance: 1198309 (k[5mC]*kT*kT*dT*dT*dA*d[5mC]*dA*dT*dT*dA*dG*kG*eA*kA*e[5mC]; antisense) [Compound 1198309]
- YAP1 (% UT) [2]: 85 % UT

Substance: 1198323 (kA*kG*kT*dG*d[5mC]*dT*dT*dT*dG*dG*dA*dA*kG*eA*kT*e[5mC]; antisense) [Compound 1198323]
- YAP1 (% UT) [2]: 32 % UT

Substance: 1198304 (kA*kG*kG*dT*dA*dT*dA*dA*d[5mC]*dT*dG*dG*kG*e[5mC]*kA*eA; antisense) [Compound 1198304]
- YAP1 (% UT) [3]: 33 % UT

Substance: 1198211 (kA*kT*dT*dA*dG*dA*dG*dT*dA*dT*dG*eT*eG*eG*k[5mC]*kA; antisense) [Compound 1198211]
- YAP1 (% UTC) [4]: 19 % UTC

Substance: 1198662 (antisense kT*kT*dT*dG*dG*dA*dA*dG*dA*dT*d[5mC]*dT*kG*eA*kA*eA) [Compound 1198662]
- YAP1 (% UTC) [5]: 83 % UTC

Substance: 1198623 (k[5mC]*kT*kA*dA*dG*dT*dA*dA*dG*dG*dT*dT*kT*k[5mC]*k[5mC]*e[5mC]; antisense) [Compound 1198623]
- YAP1 (% UT) [6]: 9 % UT

Substance: 1198433 (kG*dT*dA*dA*dT*dA*dT*dT*dG*d[5mC]*dA*kA*eT*k[5mC]*eT*kG) [Compound 1198433]
- YAP1 (% UTC) [7]: 36 % UTC

Substance: 1198424 (k[5mC]*dT*d[5mC]*dT*dT*dA*dT*dA*dT*dG*dG*kT*eT*kT*eT*kG; antisense) [Compound 1198424]
- YAP1 (% UTC) [7]: 15 % UTC

Substance: 1197234 (antisense kT*kT*kA*dG*mA*dG*dT*dA*dT*dG*dT*dG*dG*k[5mC]*kA*kA) [Compound 1197234]
- YAP1 (% UT) [6]: 24 % UT

Substance: 1197257 (antisense kT*k[5mC]*kA*dG*mA*dT*dT*dT*dA*dG*dG*dA*dT*kG*k[5mC]*kA) [Compound 1197257]
- YAP1 (% UT) [8]: 20 % UT

Substance: 1198290 (kT*kG*kG*dA*dA*dA*dT*dT*dG*dT*d[5mC]*dT*k[5mC]*eA*kT*eG; antisense) [Compound 1198290]
- YAP1 (% UT) [2]: 15 % UT

Substance: 1198629 (kA*kT*dT*dG*dT*d[5mC]*dT*d[5mC]*dA*dT*dG*d[5mC]*k[5mC]*eT*kT*eA; antisense) [Compound 1198629]
- YAP1 (% UTC) [5]: 22 % UTC

Substance: 1200826 (kG*kT*kG*d[5mC]*dT*mU*dT*dG*dG*dA*dA*dG*dA*kT*k[5mC]*kT; antisense) [Compound 1200826]
- YAP1 (% UT) [9]: 26 % UT

Substance: 1198272 (kT*kT*dT*dA*dA*dA*dG*dT*dG*dT*dA*eT*eG*eT*k[5mC]*kA; antisense) [Compound 1198272]
- YAP1 (% UTC) [10]: 37 % UTC

Substance: 1197293 (k[5mC]*kA*k[5mC]*dT*mU*dT*dT*dA*d[5mC]*dA*dT*dT*dA*kG*kG*kA; antisense) [Compound 1197293]
- YAP1 (% UT) [6]: 94 % UT

Substance: 1198574 (antisense kG*kG*kA*dA*dG*dA*dT*d[5mC]*dT*dG*dA*dA*kA*k[5mC]*kT*e[5mC]) [Compound 1198574]
- YAP1 (% UT) [3]: 37 % UT

Substance: 1197222 (antisense kA*kA*kG*dT*dA*dA*dG*dG*dT*dT*dT*d[5mC]*d[5mC]*k[5mC]*kA*kG) [Compound 1197222]
- YAP1 (% UT) [1]: 40 % UT

Substance: 1198325 (kA*kG*kG*dA*dT*dG*d[5mC]*dA*dT*dG*dG*dT*kT*eT*kT*eT; antisense) [Compound 1198325]
- YAP1 (% UT) [2]: 34 % UT

Substance: 1197282 (kA*kA*kA*dT*mU*dG*dT*d[5mC]*dT*d[5mC]*dA*dT*dG*k[5mC]*k[5mC]*kT) [Compound 1197282]
- YAP1 (% UT) [6]: 40 % UT

Substance: 1200820 (kG*kG*kA*dA*dG*mA*dT*d[5mC]*dT*dG*dA*dA*dA*k[5mC]*kT*k[5mC]; antisense) [Compound 1200820]
- YAP1 (% UT) [9]: 24 % UT

Substance: 1198666 (antisense kG*kT*dG*d[5mC]*dT*dT*dT*dG*dG*dA*dA*dG*kA*eT*k[5mC]*eT) [Compound 1198666]
- YAP1 (% UTC) [5]: 44 % UTC

Substance: 1198349 (kA*kT*kG*dT*dA*dA*dT*dA*dT*dT*dG*d[5mC]*kA*eA*kT*e[5mC]) [Compound 1198349]
- YAP1 (% UT) [3]: 85 % UT

Substance: 1198276 (kA*kG*dT*dA*dA*dG*dG*dT*dT*dT*d[5mC]*e[5mC]*e[5mC]*eA*kG*kA; antisense) [Compound 1198276]
- YAP1 (% UTC) [10]: 52 % UTC

Substance: 1197275 (kA*kA*kG*dT*mA*dA*dG*dG*dT*dT*dT*d[5mC]*d[5mC]*k[5mC]*kA*kG) [Compound 1197275]
- YAP1 (% UT) [8]: 30 % UT

Substance: 1198427 (k[5mC]*dA*dA*d[5mC]*dT*d[5mC]*dT*dT*dA*dT*dA*kT*eG*kG*eT*kT; antisense) [Compound 1198427]
- YAP1 (% UTC) [11]: 62 % UTC

Substance: 1198317 (kT*kT*kG*dG*dA*dA*dG*dA*dT*d[5mC]*dT*dG*kA*eA*kA*e[5mC]; antisense) [Compound 1198317]
- YAP1 (% UT) [2]: 74 % UT

Substance: 1200803 (kG*kG*kT*dA*dT*mA*dA*d[5mC]*dT*dG*dG*dG*d[5mC]*kA*kA*kA; antisense) [Compound 1200803]
- YAP1 (% UT) [9]: 22 % UT

Substance: 1198704 (kA*kA*d[5mC]*dT*dT*dT*dA*dA*dA*dG*dT*dG*kT*eA*kT*eG; antisense) [Compound 1198704]
- YAP1 (% UTC) [4]: 72 % UTC

Substance: 1198199 (kA*kT*dT*dG*dT*d[5mC]*dT*d[5mC]*dA*dT*dG*e[5mC]*e[5mC]*eT*kT*kA; antisense) [Compound 1198199]
- YAP1 (% UTC) [4]: 38 % UTC

Substance: 1198724 (kA*eG*kA*dG*dT*dA*dT*dG*dT*dG*dG*d[5mC]*eA*eA*kT*kA; antisense) [Compound 1198724]
- YAP1 (% UTC) [11]: 16 % UTC

Substance: 1197207 (antisense kA*kA*kT*dA*dT*dT*dG*d[5mC]*dA*dA*dT*d[5mC]*dT*kG*kT*k[5mC]) [Compound 1197207]
- YAP1 (% UT) [1]: 51 % UT

Substance: 1198674 (antisense kA*kG*dA*dT*dT*dT*dA*dG*dG*dA*dT*dG*k[5mC]*eA*kT*eG) [Compound 1198674]
- YAP1 (% UTC) [5]: 21 % UTC

Substance: 1198630 (kA*kA*dT*dT*dG*dT*d[5mC]*dT*d[5mC]*dA*dT*dG*k[5mC]*e[5mC]*kT*eT; antisense) [Compound 1198630]
- YAP1 (% UTC) [5]: 37 % UTC

Substance: 1198495 (antisense kA*kG*dT*dG*d[5mC]*dT*dT*dT*dG*dG*dA*eA*kG*eA*kT*e[5mC]) [Compound 1198495]
- YAP1 (% UTC) (Table 44 experiment, free uptake, 2,000 nM, approximately 48 hours, Yap1 mRNA normalized to RIBOGREEN, relative to untreated control cells): 22 % UTC

Substance: 1198586 (antisense kA*kT*kT*dT*dA*dG*dG*dA*dT*dG*d[5mC]*dA*kT*kG*kG*eT) [Compound 1198586]
- YAP1 (% UT) [6]: 96 % UT

Substance: 1198672 (antisense kA*kT*dT*dT*dA*dG*dG*dA*dT*dG*d[5mC]*dA*kT*eG*kG*eT) [Compound 1198672]
- YAP1 (% UTC) [5]: 41 % UTC

Substance: 1200816 (kG*k[5mC]*kA*d[5mC]*dT*mU*dT*dT*dA*d[5mC]*dA*dT*dT*kA*kG*kG; antisense) [Compound 1200816]
- YAP1 (% UT) [9]: 37 % UT

Substance: 1198591 (antisense kA*kT*kT*d[5mC]*dA*dG*dA*dT*dT*dT*dA*dG*kG*kA*kT*eG) [Compound 1198591]
- YAP1 (% UT) [6]: 106 % UT

Substance: 1198709 (k[5mC]*kT*dA*dA*dG*dT*dA*dA*dG*dG*dT*dT*kT*e[5mC]*k[5mC]*e[5mC]; antisense) [Compound 1198709]
- YAP1 (% UTC) [4]: 29 % UTC

Substance: 1197261 (kT*k[5mC]*kT*dT*mA*dT*dA*dT*dG*dG*dT*dT*dT*kT*kG*kT) [Compound 1197261]
- YAP1 (% UT) [8]: 91 % UT

Substance: 1198240 (kT*kT*dA*dG*dG*dA*dT*dG*d[5mC]*dA*dT*eG*eG*eT*kT*kT) [Compound 1198240]
- YAP1 (% UTC) [4]: 43 % UTC
